Earlier results in paper PMC8178945 (Computational and Structural Biotechnology Journal, 2021).

Target: 3CL^Pro
Conditions: read-out: KD from isothermal titration calorimetry; previously obtained

For `O=c1cc(-c2ccccc2)oc2cc(O)c(O)c(O)c12` [baicalein], the Kd is given as 4.03 µM.
